Columns and labels:
Conditions in all cases: incubation time: 72 h
[1] = system: MDA-MB-453; experiment: normalised response (% of control), CellTox Green; higher = less cell death (100 = DMSO, 0 = benzethonium chloride kill control)
In short: (§1)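 Each value is the plate-normalised signal at one concentration of the series. Breast cancer cell lines (20 µl suspension) were incubated 72 h in 384-well plates with compound at 5 concentrations in 10-fold steps over a compound-specific 10,000-fold range. CellTox Green and then CellTiter-Glo were read, and each plate was scaled to 0.1 % DMSO (100) and a positive kill control (0).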

[2] = system: MDA-MB-468; experiment: as above
In short: as §1

[3] = system: HCC1599; experiment: as above
In short: as §1

[4] = system: MDA-MB-231; experiment: as above
In short: as §1

[5] = system: HCC1937; experiment: as above
In short: as §1

[6] = system: CAL-85-1; experiment: as above
In short: as §1

[7] = system: BT-549; experiment: as above
In short: as §1

[8] = system: MDA-MB-436; experiment: as above
In short: as §1

[9] = system: MCF-10A; experiment: as above
In short: as §1

[10] = system: DU-4475; experiment: as above
In short: as §1

[11] = system: CAL-120; experiment: as above
In short: as §1

[12] = system: MFM-223; experiment: as above
In short: as §1

[13] = system: BT-474; experiment: as above
In short: as §1

[14] = system: CAL-51; experiment: as above
In short: as §1

[15] = system: HDQ-P1; experiment: as above
In short: as §1

[16] = system: HCC1143; experiment: as above
In short: as §1

[17] = system: MDA-MB-453; experiment: normalised response (% of control), CellTiter-Glo; higher = more viable cells (100 = DMSO, 0 = benzethonium chloride kill control)
Method: (§2)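 DSRT, 72 h incubation, CellTox Green / CellTiter-Glo readout. Signal is normalised to DMSO and benzethonium chloride controls. Value is the normalised response at dose 3.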

[18] = system: MDA-MB-468; experiment: as above
Method: as §2

[19] = system: Hs578T; experiment: as above
Method: as §2

[20] = system: HCC1599; experiment: as above
Method: as §2

[21] = system: MDA-MB-231; experiment: as above
Method: as §2

[22] = system: HCC1937; experiment: as above
Method: as §2

[23] = system: CAL-85-1; experiment: as above
Method: as §2

[24] = system: BT-549; experiment: as above
Method: as §2

[25] = system: MDA-MB-436; experiment: as above
Method: as §2

[26] = system: MCF-10A; experiment: as above
Method: as §2

[27] = system: DU-4475; experiment: as above
Method: as §2

[28] = system: SK-BR-3; experiment: as above
Method: as §2

[29] = system: CAL-120; experiment: as above
Method: as §2

[30] = system: CAL-148; experiment: as above
Method: as §2

[31] = system: MFM-223; experiment: as above
Method: as §2

[32] = system: BT-474; experiment: as above
Method: as §2

[33] = system: CAL-51; experiment: as above
Method: as §2

[34] = system: HDQ-P1; experiment: as above
Method: as §2

[35] = system: HCC1143; experiment: as above
Method: as §2

[36] = system: Hs578T; experiment: normalised response (% of control), CellTox Green; higher = less cell death (100 = DMSO, 0 = benzethonium chloride kill control)
In short: as §1

[37] = system: CAL-148; experiment: as above
In short: as §1

SMILES | normalised response [1] [%] | normalised response [2] [%] | normalised response [3] [%] | normalised response [4] [%] | normalised response [5] [%] | normalised response [6] [%] | normalised response [7] [%] | normalised response [8] [%] | normalised response [9] [%] | normalised response [10] [%] | normalised response [11] [%] | normalised response [12] [%] | normalised response [13] [%] | normalised response [14] [%] | normalised response [15] [%] | normalised response [16] [%] | normalised response [17] [%] | normalised response [18] [%] | normalised response [19] [%] | normalised response [20] [%] | normalised response [21] [%] | normalised response [22] [%] | normalised response [23] [%] | normalised response [24] [%] | normalised response [25] [%] | normalised response [26] [%] | normalised response [27] [%] | normalised response [28] [%] | normalised response [29] [%] | normalised response [30] [%] | normalised response [31] [%] | normalised response [32] [%] | normalised response [33] [%] | normalised response [34] [%] | normalised response [35] [%] | normalised response [36] [%] | normalised response [37] [%]
Cc1c(CN2CCN(C(=O)[C@H](C)O)CC2)sc2c(N3CCOCC3)nc(-c3cnc(N)nc3)nc12 [GDC-0980] (100 nM) | 98 | 124 | 106 | 81.2 | 114 | 106 | 106 | 108 | 83.3 | 99.9 | 102 | 105 | 101 | 112 | 110 | 113 | 75.8 | 95.9 | 86.2 | 98.3 | 97.1 | 89.3 | 99.9 | 90.1 | 92.5 | 90.8 | 98 | 72.5 | 96.2 | 102 | 93.6 | 93.5 | 86.3 | 84 | 92.9 |  | 
Cc1cccc(-c2nn3c(c2-c2ccnc4ccc(C(N)=O)cc24)CCC3)n1 [Galunisertib] (10 nM) | 103 | 101 | 116 | 116 | 123 | 107 | 114 | 104 | 82.4 | 109 | 105 | 107 | 103 | 114 |  | 70.5 | 110 | 107 | 103 | 102 | 113 | 101 | 96.8 | 104 | 106 | 111 | 108 | 110 | 109 | 112 | 106 | 108 | 120 | 104 | 103 | 100 | 106
